Measurements published in ChEMBL document CHEMBL1131406, “Tripeptide growth hormone secretagogues” (Bioorg Med Chem Lett, 1998).

organism: Rattus norvegicus; assay: Tested in vitro for growth hormone release from rat pituitary cells; assay type: functional, cell-based, Pituitary gland cell; conditions: Rattus norvegicus, Pituitary gland cell

CCOC(=O)[C@H](CCCc1ccccc1)NC(=O)[C@@H](Cc1c[nH]c2ccccc12)NC(=O)C(C)(C)N and CCOC(=O)[C@@H](CCCc1ccccc1)NC(=O)[C@@H](Cc1c[nH]c2ccccc12)NC(=O)C(C)(C)N are within 1.5-fold of each other in EC50: 820 nM for the first, 1140 nM for the second.

Going from CC(C)(N)C(=O)N[C@H](Cc1c[nH]c2ccccc12)C(=O)NCc1ccc2ccccc2c1 to CC(C)(N)C(=O)N[C@H](Cc1c[nH]c2ccccc12)C(=O)NCCc1cccc2ccccc12, the EC50 rises from 85 nM to 860 nM (10-fold).

Going from CCOC(=O)[C@H](CCc1ccccc1)NC(=O)[C@@H](Cc1c[nH]c2ccccc12)NC(=O)C(C)(C)N to COC(=O)[C@@H](CCc1ccccc1)NC(=O)[C@@H](Cc1c[nH]c2ccccc12)NC(=O)C(C)(C)N, the EC50 rises from 3 nM to 18 nM (6-fold).

Going from CCNC(=O)[C@@H](CCc1ccccc1)NC(=O)[C@@H](Cc1c[nH]c2ccccc12)NC(=O)C(C)(C)N to CC(C)(N)C(=O)N[C@H](Cc1c[nH]c2ccccc12)C(=O)N[C@H](CCc1ccccc1)C(=O)O, the EC50 rises from 246 nM to > 500 nM. The first is the more potent here.

Going from CC(C)(N)C(=O)N[C@H](Cc1c[nH]c2ccccc12)C(=O)N[C@H](CCc1ccccc1)C(=O)OCc1ccccc1 to CC(C)OC(=O)[C@@H](CCc1ccccc1)NC(=O)[C@@H](Cc1c[nH]c2ccccc12)NC(=O)C(C)(C)N, the EC50 falls from 500 nM to 4 nM (120-fold).

CCOC(=O)[C@@H](Cc1ccccc1)NC(=O)[C@@H](Cc1c[nH]c2ccccc12)NC(=O)C(C)(C)N and CCOC(=O)[C@H](Cc1ccccc1)NC(=O)[C@@H](Cc1c[nH]c2ccccc12)NC(=O)C(C)(C)N are within 1.5-fold of each other in EC50: 350 nM for the first, 240 nM for the second.

First: CCOC(=O)[C@H](Cc1ccc2ccccc2c1)NC(=O)[C@@H](Cc1c[nH]c2ccccc12)NC(=O)C(C)(C)N
Second: CCOC(=O)[C@H](Cc1cccc2ccccc12)NC(=O)[C@@H](Cc1c[nH]c2ccccc12)NC(=O)C(C)(C)N
The EC50 of the first is 50-fold higher: 2000 nM for the first, 40 nM for the second. The second is the more potent here.

CCOC(=O)[C@@H](CCc1ccccc1)NC(=O)[C@@H](Cc1cccc2ccccc12)NC(=O)C(C)(C)N and CCOC(=O)[C@H](CCc1ccccc1)N(C)C(=O)[C@@H](Cc1c[nH]c2ccccc12)NC(=O)C(C)(C)N cannot be ordered by EC50: > 50 nM for the first, 270 nM for the second.

Going from CCOC(=O)[C@H](Cc1ccccc1)N(C)C(=O)[C@@H](Cc1c[nH]c2ccccc12)NC(=O)C(C)(C)N to CC(C)(N)C(=O)N[C@H](Cc1c[nH]c2ccccc12)C(=O)NCCCc1ccccc1, the EC50 rises from 40 nM to 390 nM (9.8-fold). The first is the more potent here.

For CC(C)(N)C(=O)N[C@H](Cc1c[nH]c2ccccc12)C(=O)NCCCCc1ccccc1, the EC50 was 700 nM.

same assay, conditions: pituitary gland cell

Molecule CCOC(=O)[C@@H](CCc1ccccc1)NC(=O)[C@@H](Cc1c[nH]c2ccccc12)NC(=O)C(C)(C)N has an EC50 of 50 nM.

organism: Rattus norvegicus; assay: Compound was tested in vitro for growth hormone release from rat pituitary cells; Inactive; assay type: functional, cell-based; conditions: pituitary gland cell

In the case of CC(C)(N)C(=O)N[C@H](Cc1c[nH]c2ccccc12)C(=O)NCc1cccc2ccccc12, the EC50 is reported as “Not Active”.
In the case of CCOC(=O)[C@@H](CCc1ccccc1)NC(=O)[C@H](Cc1c[nH]c2ccccc12)NC(=O)C(C)(C)N, the EC50 is reported as “Not Active”.
In the case of CC(C)(N)C(=O)N[C@H](Cc1c[nH]c2ccccc12)C(=O)NCCc1ccccc1, the EC50 is reported as “Not Active”.
CCOC(=O)[C@@H](CCc1ccccc1)NC(=O)[C@@H](Cc1ccc2ccccc2c1)NC(=O)C(C)(C)N was tested, and the EC50 was “Not Active”.
